Source: ChEMBL document CHEMBL1201862, “PubChem BioAssay data set” (2004)
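A five-concentration, 48-hour dose response in 96-well plates underlies each endpoint, interpolated linearly between surrounding concentrations. GI50 is the concentration that inhibits growth by half.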 Activity calls are given as the source filed them. Cut-off read from the data, not from the text of the source: active = GI50 up to about 1.1 µM and inactive = higher.

Experiments:
Assay in all cases: DTP human tumour cell line panel, 48 h
[1] = tested on: BT-549
[2] = tested on: COLO 205
[3] = tested on: DU-145
[4] = tested on: EKVX
[5] = tested on: HOP-92
[6] = tested on: HT-29
[7] = tested on: LOX IMVI
[8] = tested on: M14
[9] = tested on: MCF7
[10] = tested on: MOLT-4
[11] = tested on: Malme-3M
[12] = tested on: OVCAR-5
[13] = tested on: RXF 393
[14] = tested on: SK-MEL-28
[15] = tested on: SK-OV-3
[16] = tested on: SN12C
[17] = tested on: SNB-19
[18] = tested on: SW-620
[19] = tested on: UACC-62
[20] = tested on: UO-31

Compound	GI50 [1]	GI50 [2]	GI50 [3]	GI50 [4]	GI50 [5]	GI50 [6]	GI50 [7]	GI50 [8]	GI50 [9]	GI50 [10]	GI50 [11]	GI50 [12]	GI50 [13]	GI50 [14]	GI50 [15]	GI50 [16]	GI50 [17]	GI50 [18]	GI50 [19]	GI50 [20]
CN(C)c1ccc(/C=c2/c3ccccc3n3nc4ccccc4c23)cc1	13.8 µM (inactive)	9.64 µM (inactive)	75.5 µM (inactive)	44.3 µM (inactive)	12.8 µM (inactive)	13.7 µM (inactive)	18.7 µM (inactive)	21.7 µM (inactive)	13.8 µM (inactive)	17 µM (inactive)	> 100 µM (inactive)	> 100 µM (inactive)	11.9 µM (inactive)	34.9 µM (inactive)	13.1 µM (inactive)	73.6 µM (inactive)	76.9 µM (inactive)	12.8 µM (inactive)	15.3 µM (inactive)	39.6 µM (inactive)
COC(=O)CC(c1ccccc1)C(C#N)(OP1(=O)OC(c2ccccc2)C(C)N1C)c1ccccc1 (stereo not given)	64.4 µM (inactive)	21.3 µM (inactive)	> 100 µM (inactive)	77.1 µM (inactive)	94 µM (inactive)	46.8 µM (inactive)	59.3 µM (inactive)	60 µM (inactive)	37.2 µM (inactive)	19.5 µM (inactive)	56.1 µM (inactive)	> 100 µM (inactive)	> 100 µM (inactive)	> 100 µM (inactive)	> 100 µM (inactive)	30.1 µM (inactive)	73.5 µM (inactive)	62.1 µM (inactive)	47.5 µM (inactive)	11.1 µM (inactive)
NC(C(F)(F)F)(C(F)(F)F)P(=O)(c1ccccc1)c1ccccc1	> 100 µM (inactive)	> 100 µM (inactive)	> 100 µM (inactive)	> 100 µM (inactive)	> 100 µM (inactive)	> 100 µM (inactive)	> 100 µM (inactive)	> 100 µM (inactive)	> 100 µM (inactive)	> 100 µM (inactive)	> 100 µM (inactive)	> 100 µM (inactive)	> 100 µM (inactive)	> 100 µM (inactive)	> 100 µM (inactive)	> 100 µM (inactive)	> 100 µM (inactive)	> 100 µM (inactive)	> 100 µM (inactive)	> 100 µM (inactive)
CC(=O)Oc1c2c(c(CC=C(C)C)c3c1C(=O)C1=C[C@@H]4CC5C(C)(C)OC(C/C=C(/C)C(=O)O)(C4=O)[C@@]15O3)OC(C)(CCC=C(C)C)C=C2 (stereo not given in full)	0.205 µM (active)	0.195 µM (active)	0.287 µM (active)	0.249 µM (active)	0.237 µM (active)	0.19 µM (active)	0.104 µM (active)	0.282 µM (active)	0.173 µM (active)	0.0769 µM (active)	0.29 µM (active)	0.361 µM (active)	0.144 µM (active)	0.188 µM (active)	0.585 µM (active)	0.181 µM (active)	0.269 µM (active)	0.091 µM (active)	0.282 µM (active)	0.173 µM (active)
O=C(O)CCCc1ccc(N(CCCl)CCCl)cc1 [CHLORAMBUCIL]	112 µM (inactive)	115 µM (inactive)	61.4 µM (inactive)	163 µM (inactive)	63.7 µM (inactive)	130 µM (inactive)	40.3 µM (inactive)	62.7 µM (inactive)	32.8 µM (inactive)	5.78 µM (inactive)	70.3 µM (inactive)	97.1 µM (inactive)	33.2 µM (inactive)	106 µM (inactive)	110 µM (inactive)	35.5 µM (inactive)	96.2 µM (inactive)	87.9 µM (inactive)	20 µM (inactive)	70.1 µM (inactive)
CN1CCCOC(c2ccc(Cl)cc2)O1 (stereo not given)	> 100 µM (inactive)	> 100 µM (inactive)	> 100 µM (inactive)	> 100 µM (inactive)	65 µM (inactive)	> 100 µM (inactive)	> 100 µM (inactive)	> 100 µM (inactive)	> 100 µM (inactive)	> 100 µM (inactive)	> 100 µM (inactive)	> 100 µM (inactive)	> 100 µM (inactive)	> 100 µM (inactive)	> 100 µM (inactive)	> 100 µM (inactive)	> 100 µM (inactive)	> 100 µM (inactive)	> 100 µM (inactive)	> 100 µM (inactive)
Cn1ccnc1Oc1ccc(Cl)cc1	16.9 µM (inactive)	13 µM (inactive)	15.9 µM (inactive)	19.8 µM (inactive)	11 µM (inactive)	13.7 µM (inactive)	13.2 µM (inactive)	13.7 µM (inactive)	12 µM (inactive)	2.38 µM (inactive)	2.28 µM (inactive)	15.6 µM (inactive)	16.9 µM (inactive)	14.4 µM (inactive)	47.4 µM (inactive)	13.6 µM (inactive)	33 µM (inactive)	13 µM (inactive)	11.1 µM (inactive)	11.7 µM (inactive)
